In ChEMBL document CHEMBL1154999, “N-(2,2-Dimethyl-2-(2-nitrophenyl)acetyl)-4-aminocyclophosphamide as a potential bioreductively activated prodrug of phosphoramide mustard” (Bioorg Med Chem Lett, 2008) one finds half-life data, which are given here for 1 compound.

Format in all cases: physicochemical
Data set [1] in a line: Chemical stability in sodium phosphate buffer assessed as half life at pH 7.4 at 37 degC.
The nature of data set [2]: Chemical stability in sodium phosphate buffer assessed as half life at pH 6.0 at 37 degC.
A short description of data set [3]: Chemical stability in sodium acetate buffer assessed as half life at pH 5.0 at 37 degC.
Data set [4] is described as follows: Chemical stability in sodium phosphate buffer assessed as half life at pH 6.5 at 37 degC.
A short description of data set [5]: Chemical stability in sodium acetate buffer assessed as half life at pH 4.5 at 37 degC.
The nature of data set [6]: Chemical stability in sodium acetate buffer assessed as half life at pH 5.6 at 37 degC.
Data set [7] is described as follows: Chemical stability in sodium acetate buffer assessed as half life at pH 5.4 at 37 degC.
Data set [8] in a line: Chemical stability in sodium acetate buffer assessed as half life at pH 4.0 at 37 degC.

As usually defined, the half-life is the time in which the quantity being followed falls by half.

With `CC(C)(C(=O)NC1CCOP(=O)(N(CCCl)CCCl)N1)c1ccccc1N` (stereo not drawn), the half-life is 53.7 min in data set [1]; 12.6 min in data set [2]; 9.8 min in data set [3]; 19.3 min in data set [4]; 4.9 min in data set [5]; 27.2 min in data set [6]. For the same compound, the results for the half-life in data set [7] and in data set [8] were 17.5 min and 3.2 min, respectively.
